Measurements reported in patent US6949528B1, “Compositions containing lysophosphatidic acids which inhibit apoptosis and uses thereof” (priority 1998, dated 2005).
Like-named read-outs stand apart in the source and are kept apart here.

Assays:
[1] = system: rat neonatal cardiomyocytes; assay: Cardiomyocyte death induced by serum/glucose deprivation; format: cell-based; settings: for Emax: Rattus norvegicus, Cardiomyocyte, read-out: Maximum effect relative to 18:1 LPA in cardiomyocytes
Procedure: Cardiomyocytes were prepared from hearts of day-old Sprague Dawley rats by trypsinization and mechanical disaggregation (Simpson, (1985)) Circ. Res. 56:884-894. The cells were resuspended in MEM, 1×MEM vitamins (Gibco), 5% fetal bovine serum and 50 U/ml penicillin-G and pre-plated for 30 minutes to reduce contamination of non-myocytes. The non-adherent cardiac myocytes were separated and seeded in 2 ml in 35 mm dishes at a density of 3.5×10^5 viable cells per ml. The cells were allowed to adhere for 16-24 hours in a 37° C./5% CO2 humidified incubator.
For serum deprivation, the medium was replaced with fresh serum-free RPMI, whereas serum/glucose deprivation was performed using glucose-free RPMI. The induction of cell death by adriamycin or C2-ceramide was accomplished by the addition of the agent prepared in serum-free RPMI. As a model of ischemia, cultures in serum and glucose free RPMI were placed in an airtight chamber and the latter was continuously perfused with oxygen-free gas overlay of 95% N2/5% CO2 for 8 hours at 37° C. To model reperfusion of the ischemic cells, 10% fetal bovine serum, 2 g/L of glucose were added and the cultures were returned to a normal oxygen gas overlay (37° C./5% CO2) in a humidified incubator for 16 hours.
T investigate effects of LPA, LPA plus other phospholipids, PEG or their mixtures on cell death, various combinations of these components were added to cells in serum free medium at the beginning of cytotoxic treatment.
Because cardiomyocytes are terminally differentiated non-dividing cells, viability was determined by measurement of the decrease in the relative number of adherent cells. […] Adherent cardiomyocytes were collected from culture dishes using 0.25% Trypsin/0.05% EDTA and counted on Coulter Counter ZM and Coulter Channelyzer 256.

[2] = system: C3H/10T1/2 cells; assay: Anti-apoptotic activity assay: serum deprivation of C3H/10T1/2 cells; format: cell-based; settings: for activity compared with lysophosphatidic acid: Table 3
Description: In order to determine the […] of the claimed invention, the following method of analysis was used. The cell assay is described in detail in U.S. Pat. Nos. 5,637,486, 5,620,888, and 5,681,703, and Tomei et al. (1993) Proc Natl. Aci. 90:853-857. Briefly, mouse fibroblast C3H/10T1/2 cells (clone 8) were obtained from ATCC (Rockville, Md.) and were maintained in exponential growth phase in which the cell cycle is randomly distributed and no cells are arrested in G0, and in quiescence. Exponential growth phase was assured by seeding at 2000 cells per 1 ml (5 ml for 60 mm culture plate) five days prior to the beginning of the experiment. Assays were performed on cells only up to passage 15. At T=0, cultures were transferred to serum-free medium, as an appropriate stimulus, and seed extracts were added. Controls included 10^−7 and 5×10^−8 M 12-O-tetradecanoyl phorbol-13-acetate (TPA) to ensure the responsiveness of the cell culture. The samples were added to serum free medium and sterile filtered prior to addition to the cultures. Assays were performed in triplicate or quadruplicate. Analyses of the cell responses were made between 18 and 28 hours of serum deprivation. Two assays were performed on each cell culture plate consisting of differential cell counts.
1. All non-adherent or loosely adherent cells were removed from the culture dish and counted by appropriate techniques, typically counting by electronic particle counting instrument. These are the apoptotic cells, the serum deprived released cells (SDR), released by the action of cultivation in serum-free medium. Approximately 95% of these released cells are apoptotic as shown by both ultrastructure analysis and DNA fragmentation analysis.
2. The remaining adherent cells (ADH) were exposed to a buffered, typically pH 7.3, balanced salt solution such as a Hanks Balanced Salt Solution without calcium and magnesium salts containing 0.05% trypsin and 0.53 mM ethylene diaminetetraacetic acid (EDTA). Each culture was incubated at either room temperature or 37(C on a rocking platform to ensure uniform distribution of the trypsin reagent over the culture surface. After a standardized period of time, typically 10 minutes, the released cells were removed from each culture dish and measured by the same means as described above, typically electronic particle counting. This ADH cell count is comprised of both trypsin resistant and trypsin sensitive cells as described in U.S. Pat. Nos. 5,637,486, 5,620,888, and 5,681,703.
Anti-apoptotic activity is expressed in the following examples as the calculated concentration of material ((g/ml of media) required to save 50% of the cells released on serum free treatment.
The ability of 18:1-LPA an other LPAs to protect serum-starved cells from apoptotic death was measured using the C3H/10T1/2 cell assay, performed as described in Example 2. The effect of various compounds on the ability of lysophosphatidic acid to protect serum-starved cells from apoptotic death was also measured. Log phase cells were seeded in 60 mm Petri dishes at 175-350 cells per cm2 and maintained in Basal Medium Eagle (BME) supplemented with 10% Heat Inactivated Fetal Bovine Serum (HIFBS). On day 3 the cells were given fresh media. Treatment began on day 5 when the media containing serum was removed and replaced with the LPA mixture to be tested. After 24 hours of treatment, day 6, serum deprived released (SDR) cells (the […] cell population) and adherent (ADH) cells were separated and counted using an electronic cell counter (Coulter Corporation, Hialea, Fla.). […]

[3] = serum-deprived C3H/10T1/2 cells, 24 hours of treatment

Row | Structure (SMILES) | Toxic concentration range in cardiomyocytes ([1]; serum/glucose deprivation) | Maximum effect relative to 18:1 LPA: Toxic [2] | lowest concentration at which cytotoxic effects were observed (column Concentration for Max Effect) ([2]; mouse, 24 h) | Emax ([1]; serum/glucose deprivation) | Concentration ranges for cardiomyocyte protection ([1]; serum/glucose deprivation) | Emax ([2]; Mus musculus, serum-deprived C3H/10T1/2 cells, 24 hours of treatment, read-out: Maximum effect relative to 18:1 LPA) | Concentration for Max Effect [2, 3] | Emax [1] | Maximum effect relative to 18:1 LPA in cardiomyocytes ([1]; serum/glucose deprivation) | activity compared with lysophosphatidic acid [2] | Maximum effect relative to 18:1 LPA [2, 3]
1 | CCCCCCCCCCCCCCOCC(O)COP(=O)(O)O (racemic) [Compound 4, 3-O-Tetradecyl-rac-glycero-1-phosphate] | Toxic (3-30 μM) | Toxic | 10 µM | – | – | – | – | – | – | – | –
2 | CCCCCCCC/C=C\CCCCCCCCOCC(O)COP(=O)(O)O (racemic) [Compound 12, 3-O-Oleyl-rac-glycero-1-phosphate] | – | – | – | 100% | 1 to 10 µM | 100% | 10 µM | – | – | – | –
3 | CCCCCCCC/C=C\CCCCCCCC(=O)OCC(COP(=O)(OC)OC)OC (racemic) [Compound 45, Dimethyl 3-O-oleoyl-2-O-methyl-rac-glycero-1-phosphate] | – | – | – | – | 30 µM | – | – | 30% | – | – | –
4 | CCCCCCCC/C=C\CCCCCCCC(=O)OCC(COP(O)(O)=S)OC (racemic) [Compound 48, 3-O-Oleoyl-2-O-methyl-rac-glycero-1-thiophosphate] | – | – | – | – | .03 to 10 µM | – | 1 µM | – | 100% | activity significantly higher than lysophosphaticid acid | 130%
5 | CCCCCCCC/C=C\CCCCCCCCOCC(COP(O)(O)=S)OC (racemic) [Compound 66, 3-O-Oleyl-2-O-methyl-rac-glycero-1-thiophosphate] | – | – | – | – | .03 to 1 µM | – | 1 µM | – | 60% | activity significantly higher than lysophosphaticid acid | 130%
6 | CCCCCCCC/C=C\CCCCCCCCOC(=O)C(COP(O)(O)=S)OC (racemic) [Compound 78, Oleyl 1-thiophosphoryl-2-O-methyl-rac-glycerate] | – | – | – | – | .01 to 3 µM | – | 1 µM | – | 130% | activity significantly higher than lysophosphaticid acid | 160%
7 | CCCCCCCC/C=C\CCCCCCCCOCCCOP(=O)(O)O [Compound 16, 3-O-Oleyloxypropyl-1-phosphate] | – | – | – | – | 1 to 3 µM | – | 10 µM | – | 100% | – | 100%
8 | CCCCCCCCCCOCCCOP(=O)(O)O [Compound 19, 3-Decyloxypropyl-1-phosphate] | – | – | – | – | 1 to 10 µM | – | 30 µM | – | 100% | – | 50%
9 | CCCCCCCC/C=C\CCCCCCCC(=O)OCCCOP(=O)(O)O [Compound 30, 1-(3-propyl oleoate)phosphate] | – | – | – | – | 1 to 10 µM | – | 30 µM | – | 150% | – | 100%
10 | CCCCCCCC/C=C\CCCCCCCC(=O)OCCCOP(O)(O)=S [Compound 68, 1-(3-propyloleoate)thiophosphate] | – | – | – | – | .003 to 10 µM | – | 1 µM | – | 100% | – | 150%
